Measured values: patent publication US20190255011A1, “INHIBITION OF TUMOUR CELL MIGRATION” (GW Pharma Limited, priority 2004, published 2019)

Legend:
U87 human glioma cells [1] = experiment: cell migration assay in modified Boyden chamber; type: cell-based
Method: Cannabidiol (CBD) in the form of a botanical drug substance was dissolved in ethanol to a concentration of 100 mM this was stored at −20° C. until required.
Before use the CBD was further diluted with tissue culture medium to the desired concentration, ensuring that the concentration of ethanol was below 0.001%.
U87 human glioma cells were used throughout this experiment. The cells were maintained at 37° C. in a humidified atmosphere with 5% CO2 and 95% air.
Cells were cultured in a 75 cm^2 culture flask in Dulbecco's Modified Eagle Medium (DMEM), which had been supplemented with 4 mM L-glutamine, 100 units/ml penicillin, […], 1% sodium pyruvate, 1% non-essential amino acids and 10% heat-inactivated fetal bovine serum.
A cell migration assay was undertaken with the U87 cells in a 48 well, modified Boyden chamber in which upper and lower compartments were separated by a polycarbonate filter with a pore diameter of 8 μm coated with 15 μg/ml of fibronectin. Conditioned medium (CM) served as a chemoattractant. The CM was made by incubating a subconfluent culture of U87 cells with complete medium for 3 days.
The coated filter was placed over the bottom chamber, which contained the conditioned medium. Serum-free medium was used as a negative control.
U87 cells were treated with either CBD or vehicle for 30 minutes and then seeded in the upper chamber at a concentration of 3×10^4 cells per well and incubated for 6 hours at 37° C.
After the incubation the non-migrated cells on the upper surface of the filter were removed by scraping and the migrated cells on the lower side of the filter were stained with Diff-Quick Stain. Between 5 and 8 unit fields per filter were counted at 400× magnification.
As is shown in FIG. 1 cells were exposed to an increased concentration of CBD in a range starting from 0.01 μM to 9 μM and their migration was evaluated after 6 hours. The degree of inhibition of cell migration is expressed as a percentage of inhibition versus vehicle treatment (maximal stimulation).

U87 human glioma cells [2] = experiment: cell viability at the concentrations used in the migration assay; type: cell-based; settings: range of CBD concentrations used (0.01 μM to 9 μM)
[3] = tested on: U87 human glioma cell line; settings: cited from earlier work
[4] = tested on: U373 human glioma cell line; settings: cited from earlier work
[5] = tested on: U87 human glioma cells subcutaneously implanted to nude mice; settings: cited from earlier work
U87 human glioma cells [6] = experiment: cell migration assay with pre-treatment by CB1 and CB2 receptor antagonists; type: cell-based; settings: antagonist 0.1 μM and 1 μM, 30 minutes pre-treatment, then CBD 6 μM
Method: In order to determine whether the CBD-induced inhibition of cell migration as described in Example 1 above was dependant on the stimulation of these receptors the cell migration assay was performed with specific antagonists selective to CB1 and CB2 receptors. These are SR141716A and SR144528 respectively.
U87 human glioma cells were firstly pre-treated with the antagonists for 30 minutes and then treated with the CBD for an additional 30 minutes before seeding in the upper chamber of the Boyden chamber.
The cell migration assay was performed using a CBD concentration of 6 μM (shown in Example 1 to inhibit 50% migration. The CB1 and CB2 receptor antagonists were tested at concentrations of 0.1 μM and 1 μM, at these concentrations cell viability was not affected.

## C=C(C)[C@@H]1CCC(C)=C[C@H]1c1c(O)cc(CCCCC)cc1O [CBD, cannabidiol]
U87 human glioma cells [1]; CBD added to culture medium of U87 cells
  inhibition of migration: concentration-dependant inhibition of migration
U87 human glioma cells [1]; Homo sapiens, Glioma cell, CBD concentration of 6 μM
  inhibition at 6 µM: 50%
U87 human glioma cells [1]; Homo sapiens, U-87 MG, U87 cells, CBD 0.01 μM to 9 μM, migration evaluated after 6 hours, versus vehicle treatment, read-out: IC50 of inhibition of cell migration
  IC50: 5.05 ± 1.1 µM
U87 human glioma cells [2]
  cell viability: did not alter cell viability
[3]
  anti-proliferative effects in-vitro: anti-proliferative effects
[4]
  anti-proliferative effects in-vitro: anti-proliferative effects
[5]
  anti-proliferative effects in-vivo: anti-proliferative effects

## Cc1c(C(=O)NN2CCCCC2)nn(-c2ccc(Cl)cc2Cl)c1-c1ccc(Cl)cc1 [SR141716]
U87 human glioma cells [6]
  effect of antagonist pre-treatment on CBD-induced inhibition of migration: not prevented

## SR144528
U87 human glioma cells [6]
  effect of antagonist pre-treatment on CBD-induced inhibition of migration: not prevented
